For test [1], the system named is Mycobacterium tuberculosis. Nature of the test: Antimycobacterial activity against isoniazid and rifampicin resistant Mycobacterium tuberculosis 11277 by MABA method. It counts as functional.
Test [2] deals with Mycobacterium tuberculosis. Nature of the test: Antimycobacterial activity against isoniazid and rifampicin resistant Mycobacterium tuberculosis 6133 by MABA method. Type of test: functional.

In brackets after ≈: the same amount, converted by molar mass.

For the compound `CO/N=C1/CCN(c2c(F)cc3c(=O)c(C(=O)O)cn([C@@H]4C[C@@H]4F)c3c2OC)CC1N` (stereo partly specified), the MIC in test [1] amounted to 0.125 µg/mL (≈ 0.286 µM); in test [2], 0.0625 µg/mL (≈ 0.143 µM).

Regarding `CO/N=C1/CN(c2c(F)cc3c(=O)c(C(=O)O)cn([C@@H]4C[C@@H]4F)c3c2OC)[C@H]1CN`, the MIC in test [1] was 0.25 µg/mL (≈ 0.592 µM); in test [2] it was 0.125 µg/mL (≈ 0.296 µM).

Take `CCO/N=C1/CN(c2cc3c(cc2F)c(=O)c(C(=O)O)cn3[C@@H]2C[C@@H]2F)CC1CN` (stereo partly specified): the MIC in test [1] and in test [2] was 0.125 µg/mL (≈ 0.297 µM) each time.

In the case of `NCC1CN(c2cc3c(cc2F)c(=O)c(C(=O)O)cn3[C@@H]2C[C@@H]2F)C/C1=N/OCc1ccccc1` (stereo partly specified), the MIC in test [1] came to 0.25 µg/mL (≈ 0.518 µM); in test [2], 0.125 µg/mL (≈ 0.259 µM).

As to `CO/N=C1/CN(c2cc3c(cc2F)c(=O)c(C(=O)O)cn3[C@@H]2C[C@@H]2F)[C@H]1CN`, the MIC in test [1] was 0.25 µg/mL (≈ 0.637 µM); in test [2], 0.125 µg/mL (≈ 0.319 µM).

As to `NC[C@H]1/C(=N\OCc2ccccc2)CN1c1cc2c(cc1F)c(=O)c(C(=O)O)cn2[C@@H]1C[C@@H]1F`, the figures for the MIC in test [1] and in test [2] were 0.5 µg/mL (≈ 1.07 µM) and 0.25 µg/mL (≈ 0.534 µM), respectively.

Turning to `CO/N=C1/CN(c2nc3c(cc2F)c(=O)c(C(=O)O)cn3[C@@H]2C[C@@H]2F)CC1CN` (stereo partly specified), the values for the MIC in test [1] and in test [2] were 0.25 µg/mL (≈ 0.614 µM) and 0.125 µg/mL (≈ 0.307 µM), respectively.

With `CCO/N=C1/CN(c2nc3c(cc2F)c(=O)c(C(=O)O)cn3[C@@H]2C[C@@H]2F)CC1CN` (stereo partly specified), the MIC in test [1] and in test [2] was 0.125 µg/mL (≈ 0.297 µM) in each case.

On to `NCC1CN(c2nc3c(cc2F)c(=O)c(C(=O)O)cn3[C@@H]2C[C@@H]2F)C/C1=N/OCc1ccccc1` (stereo partly specified), for which the figures for the minimum inhibitory concentration (MIC) in test [1] and in test [2] were 0.5 µg/mL (≈ 1.03 µM) and 0.125 µg/mL (≈ 0.259 µM), respectively.

Take `O=C(O)c1cn(C2CC2)c2cc(N3CCNCC3)c(F)cc2c1=O` [CIPROFLOXACIN]: the MIC in test [1] and in test [2] was 0.125 µg/mL (≈ 0.377 µM) each time.

Take `NNC(=O)c1ccncc1` [ISONIAZID]: the MIC turned out to be 1 µg/mL (≈ 7.29 µM) in test [1] and 4 µg/mL (≈ 29.2 µM) in test [2].

As for `C[C@H]1COc2c(N3CCN(C)CC3)c(F)cc3c(=O)c(C(=O)O)cn1c23.C[C@H]1COc2c(N3CCN(C)CC3)c(F)cc3c(=O)c(C(=O)O)cn1c23.O` [LEVOFLOXACIN], the MIC in test [1] and in test [2] was 0.125 µg/mL each time.

Regarding `CO[C@H]1/C=C/O[C@@]2(C)Oc3c(C)c(O)c4c(O)c(c(/C=N/N5CCN(C)CC5)c(O)c4c3C2=O)NC(=O)/C(C)=C\C=C\[C@H](C)[C@H](O)[C@@H](C)[C@@H](O)[C@@H](C)[C@H](OC(C)=O)[C@@H]1C` [RIFAMPIN], the MIC in test [1] and in test [2] was over 40 µg/mL throughout.

These data come from ChEMBL document CHEMBL3352227, “Synthesis, antimycobacterial and antibacterial evaluation of l-[(1R, 2S)-2-fluorocyclopropyl]fluoroquinolone derivatives containing an oxime functional moiety” (Eur J Med Chem, 2014).
